Assay results: patent publication US6034134A, “1-Amino-alkylcyclohexane NMDA receptor antagonists” (Merz + Co. GmbH & Co., priority 1998, dated 2000)
Counter-ions that a name gives are not always drawn. Like-named read-outs stand apart in the source and are kept apart here.

How the values were obtained:
[1] = Rotarod test (motor coordination, ataxia) in mice, therapeutic index versus MES; format: in vivo; conditions: mouse, in vivo, ip; ED50 for rotarod failure divided by ED50 for MES; read-out: TI Rot.
Experimental: All compounds were dissolved in 0.9% saline.
(§1) The MES test was performed together with tests for myorelaxant action (traction reflex) and motor coordination (rotarod). For the traction reflex test mice were placed with their forepaws on a horizontal rod and were required to place all 4 paws on the wire within 10 seconds. To test ataxia (motor coordination) mice were placed on rotarod (5 rpm) and were required to remain on the rod for 1 minute. […] These tests were followed by MES (100 Hz, 0.5 second shock duration, 50 mA shock intensity, 0.9 ms impulse duration, Ugo Basile) applied through corneal electrodes. The presence of tonic convulsions was scored (tonic extension of hind paws with minimum angle to the body of 90°). The aim was to obtain ED50 s for all parameters scored (anticonvulsive activity and motor side effects) with use of the Litchfield Wilcoxon test for quantal dose responses. Division of the ED50 for side effects (ataxia or myorelaxation) by the ED50 for antagonism of electroshock convulsions was used as a therapeutic index (TI).
(§2) IC50 s in patch clamp, excitotoxicity, and binding studies were calculated according to the four parameter logistic equation using the Grafit computer program (Erithacus Software, England). Ki value for binding studies were then determined according to Cheng and Prusoff. […] Pearson product moment correlation analysis (Sigma Stat, Jandel Scientific) was used to compare in vitro potencies and in vivo anticonvulsant activity.

[2] = molecular target: NMDA receptor; test: [3H]-(+)-MK-801 binding to rat cortical membranes; conditions: read-out: MK-801 Ki; Table 9; Cheng-Prusoff with Kd for MK-801 of […]
Experimental: Male Sprague-Dawley rats (200-250 g) were decapitated and their brains were removed rapidly. The cortex was dissected and homogenized in 20 volumes of ice-cold 0.32 M sucrose using a glass-Teflon homogenizer. The homogenate was centrifuged at 1000 ×g for 10 minutes. The pellet was discarded and the supernatant centrifuged at 20,000 ×g for 20 minutes. The resulting pellet was re-suspended in 20 volumes of distilled water and centrifuged for 20 minutes at 8000 ×g. Then the supernatant and the buffy coat were centrifuged three times (48,000 ×g for 20 minutes) in the presence of 50 mM Tris-HCl, pH 8.0. All centrifugation steps were carried out at 4° C. After resuspension in 5 volumes of 50 mM Tris-HCl, pH 8.0 the membrane suspension was frozen rapidly at -80° C. On the day of assay the membranes were thawed and washed four times by resuspension in 50 mM Tris-HCl, pH 8.0 and centrifugation at 48,000 ×g for 20 minutes. The final pellet was suspended in assay buffer. The amount of protein in the final membrane preparation was determined according to the method of Lowry with some modifications. The final protein concentration used for our studies was between 250-500 μg/ml.
Membranes were re-suspended and incubated in 50 mM Tris-HCl, pH 8.0. […] Incubations were terminated using a Millipore filter system. The samples were rinsed three times with 2.5 ml ice cold assay buffer over glass fiber filters obtained from Schleicher & Schuell under a constant vacuum. Filtration was performed as rapidly as possible. Following separation and rinse, the filters were placed into scintillation liquid (5 ml; Ultima Gold) and radio activity retained on the filters was determined with a conventional liquid scintillation counter (Hewlett Packard, Liquid Scintillation Analyser).
as §2, with “Prusoff. Binding values presented are means±SEM of 3-5 determinations (each performed in duplicate).” for “Prusoff.”

[3] = Experimental: All animals were kept with water and food ad libitum under a 12 hour light-dark cycle (light on at 6 a.m.) and at a controlled temperature (20±0.5° C.). All e experiments were performed between 10 a.m. and 5 p.m. Tested agents were injected 30 min. i.p. before the induction of convulsions if not stated otherwise (see below). All compounds were dissolved in 0.9% saline.
[4] = Traction reflex test (myorelaxant action) in mice, therapeutic index versus MES; format: in vivo; conditions: ED50 for traction reflex impairment divided by ED50 for MES
Experimental: (§3) NMR female mice (18-28 g) housed 5 per cage were used for the maximal electroshock (MES) and motor impairment tests. […] All compounds were dissolved in 0.9% saline.
as §1, with “(TI). […]” for “(TI).”

[5] = system: cortical neurones; test: Excitotoxicity: glutamate toxicity in cultured cortical neurones (MTT); format: cell-based, rat; conditions: Rattus norvegicus, Cortical neurone
Experimental: Cortical neurones were obtained from cerebral cortices of 17/18 day old fetal rats (Wistar), in general following the dissociation procedure described by. After short trypsinization and gentle trituration with fire-polished Pasteur pipettes, the cell suspension was washed by centrifugation. Cells were suspended in serum-free Neurobasal medium with B27 supplement (GIBCO) before plating onto poly-L-lysine (Sigma; 0.2 mg/ml, 20 h, 4° C.) and laminin (Sigma; 2 μg/ml, 1 h, 37° C.)-coated 96-well plates (Falcon, Primaria) at a density of 5×10^4 cells/well. Cortical neurones were maintained at 37° C. in humidified 10% CO2 /90% air. […] The medium was changed first after 4 days in vitro and then every 4 days by replacing 2/3 of the medium with astrocyte-conditioned medium. Cortical neurones between day 12 and 14 in culture were used for the experiments.
New-born rat astrocytes were isolated non-enzymatically according to the method of [24]. Briefly, both hemispheres were dissected from 2-day-old rats, passed through an 80 μm gauze, and triturated with Pasteur pipettes. Cell suspension was made in Dulbecco's modified essential medium (DMEM, Gibco) supplemented with 10% fetal calf serum (FCS, Hyclone), 2 mM glutamine (Gibco) and 50 μg/ml gentamycin and transferred into untreated, plastic culture flasks (Corning; […]). Two days after plating the flasks were shaken for 10 minutes on a rotary platform (150 U/min) to remove microglial cells. The cultures were grown to confluency within 14 days, and the culture medium was changed twice weekly. Thereafter, the glial monolayers were extensively washed with serum-free Neurobasal medium (Gibco) to remove the serum. Flasks were then shaken several times to remove oligodendrocytes and neurones. To obtain conditioned medium from primary astrocytes, the cultures were incubated with fresh Neurobasal medium supplemented with B27 andglutamine. Every 2-3 days the conditioned medium was collected and replaced by fresh medium up to 4 times.
Exposure to EAA was performed in serum-free Neurobasal medium containing 100 μM glutamate and the drug to be tested. After 20 h of incubation, the cytotoxic effect was morphologically examined under a phase contrast microscope and biochemically quantified by measuring cell viability with the MTT test (Promega). This calorimetric assay measures the reduction of a tetrazolium component (MTT) into an insoluble formazan product by the mitochondria of living cells. After incubation of the cortical neurones with the dye solution for approximately 1-4 hours, a solubilization solution was added to lyse the cells and solubilize the colored product (incubation overnight at 37° C., 10% CO2, 90% RH). These samples were then read using an Elisa plate reader (Thermomax, MWG Biotech) at a wavelength of 570 nm. The amount of color produced was directly proportional to the number of viable cells.
as §2, with “Prusoff. Binding values presented are means±SEM of 3-5 determinations (each performed in duplicate).” for “Prusoff.”

[6] = system: NMDA receptor; test: Patch clamp: NMDA-induced inward currents in cultured hippocampal neurones; format: cell-based, rat
Experimental: Hippocampi were obtained from rat embryos (E20 to E21) and were then transferred to calcium and magnesium free Hank's buffered salt solution (Gibco) on ice. Cells were mechanically dissociated in 0.05% DNAase/0.3% ovomucoid (Sigma) following an 8 minute pre-incubation with 0.66% trypsin/0.1% DNAase (Sigma). The dissociated cells were then centrifuged at 18 ×g for 10 minutes, re-suspended in minimum essential medium (Gibco) and plated at a density of 150,000 cells cm^-2 onto poly-L-lysine (Sigma)-precoated plastic petri dishes (Falcon). The cells were nourished with NaHCO3 /HEPES-buffered minimum essential medium supplemented with 5% fetal calf serum and 5% horse serum (Gibco) and incubated at 37° C. with 5% CO2 at 95% humidity. […] Thereafter the medium was exchanged partially twice weekly.
Patch clamp recordings were made from these neurones with polished glass electrodes (4-6 m.OMEGA.) in the whole cell mode at room temperature (20-22° C.) with the aid of an EPC-7 amplifier (List). Test substances were applied by switching channels of a custom-made fast superfusion system with a common outflow (10-20 ms exchange times). The contents of the intracellular solution were as follows (mM): CsCl (120), TEACl (20), EGTA (10), MgCl2 (1), CaCl2 -(0.2), glucose (10), ATP(2), cAMP (0.25); pH was adjusted to 7.3 with CsOH or HC1. The extracellular solutions had the following basic composition (mM): NaCl (140), KCl (3), CaCl2 (0.2), glucose (10), HEPES (10), sucrose (4.5), tetrodotoxin (TTX 3*10^-4). Glycine (1 μM) was present in all solutions: a concentration sufficient to cause around 80-85% activation of glycineB receptors. Only results from stable cells were accepted for inclusion in the final analysis, i.e., following recovery of responses to NMDA by at least 75% of their depression by the antagonists tested.
as §2, with “Prusoff. Binding values presented are means±SEM of 3-5 determinations (each performed in duplicate).” for “Prusoff.”

[7] = Maximal electroshock (MES)-induced convulsions in mice; format: in vivo; conditions: for ED50: Mus musculus, ip, 0.5 h, read-out: MES ED50; for MES ED50: 30 min
Experimental: as §3
as §1, with “(TI). […]” for “(TI).”

[8] = cited from earlier work; for side effects in humans: human, in vivo
[9] = Table 8, mice, i.p., 95% confidence limits in parentheses
[10] = 20 h, read-out: Glut. Tox. IC50
[11] = read-out: Patch Clamp IC50; Table 7; NMDA 200 μM with glycine 1 μM at -70 mV
[12] = read-out: Patch Clamp IC50; Table 9; NMDA-induced currents

Compound	selectivity ratio at 0.5 h [1]	Ki [2] [nM]	Min Lethality ([3]; i.p., minimal lethal dose) [mg/kg]	selectivity ratio at 0.5 h ([4]; mouse, in vivo, ip, read-out: TI Tract)	IC50 ([5]; Table 9, 100 μM glutamate, read-out: Glut Tox IC50) [nM]	IC50 ([6]; Table 9; NMDA-induced currents; read-out: Patch Clamp IC50) [nM]	Min Lethality ([3]; mouse, in vivo, ip) [mg/kg]	TI Tract ([4]; 30 min)	ED50 [7, 9] [mg/kg]	IC50 [5, 10] [nM]	IC50 ([5]; read-out: Glut Tox IC50) [nM]	IC50 [6, 11] [nM]	IC50 [6, 12] [nM]	side effects in humans [8]	therapeutic efficacy in epilepsy ([8]; initial clinical experience)	ED50 [7] [mg/kg]	MES ED50 [7, 9]
CC1(C)CC(C)(C)CC(C)(N2CCCC2)C1.Cl [MRZ 2/705, N-(1,3,3,5,5-Pentamethylcyclohexyl) pyrrolidine hydrochloride]	5.4	7140	> 50	3.9													
CC1(C)CC(C)(C)CC(C)(CCN)C1 [Mrz 2/662]		3440			530	1500	> 40	1.0	30.5								
C[C@]12N[C@H](Cc3ccccc31)c1ccccc12 [MK-801, (+)-5-methyl-10,11-dihydro-5H-dibenzocyclohepten-5,10-imine maleate, reference compound]			> 108							12	13	[…]	[…]	some psychotropic side effects were apparent at therapeutic doses	poor	0.16	0.16 (0.13-0.21) mg/kg
NC12CC3CC(CC(C3)C1)C2 [Amantadine, reference compound]										20700	36900	71000	80800	rarely produce side effects at the therapeutic doses		184	184.0 (122-279) mg/kg
